Measurements: PubChem BioAssay AID248 (DTP/NCI, 2004)
“And” between values parts separate entries of the source, which are not always exact repeats. Equal values may be shown once. Inconclusive results and toxic doses are left out. Rule as the data show it: active = T/C of 150% or more; inactive = T/C below 125%.

Test system: L1210 leukemia ip in BDF1 mice, survival T/C
Test: NCI In Vivo Anticancer Drug Screen. Data for tumor model L1210 Leukemia (intraperitoneal) in B6D2F1 (BDF1) mice
Settings: endpoint: mean survival time, higher = longer survival
In short: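 Tumor cells were implanted, animals were treated, and survival was followed. The result divides the treated measurement by the vehicle-control measurement.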

[1] = dose: 100.0 mg/kg/injection, schedule: Q01DX001 (ip), vehicle: saline
[2] = dose: 200.0 mg/kg/injection, schedule: Q01DX001 (ip), vehicle: saline
[3] = dose: 400.0 mg/kg/injection, schedule: Q01DX001 (ip), vehicle: saline
[4] = dose: 100.0 mg/kg/injection, schedule: Q01DX001 (ip), vehicle: Klucel (hydroxypropylcellulose) (HPC)
[5] = dose: 12.5 mg/kg/injection, schedule: Q01DX009 (ip), vehicle: saline
[6] = dose: 25.0 mg/kg/injection, schedule: Q01DX009 (ip), vehicle: saline
[7] = dose: 50.0 mg/kg/injection, schedule: Q01DX009 (ip), vehicle: saline
[8] = dose: 100.0 mg/kg/injection, schedule: Q04DX002 (ip), vehicle: saline
[9] = dose: 100.0 mg/kg/injection, schedule: Q01DX009 (ip), vehicle: saline with Tween-80
[10] = dose: 100.0 mg/kg/injection, schedule: Q04DX003 (ip), vehicle: saline with Tween-80
[11] = dose: 200.0 mg/kg/injection, schedule: Q01DX009 (ip), vehicle: saline with Tween-80
[12] = dose: 400.0 mg/kg/injection, schedule: Q01DX009 (ip), vehicle: saline with Tween-80
[13] = dose: 200.0 mg/kg/injection, schedule: Q04DX003 (ip), vehicle: saline with Tween-80
[14] = dose: 100.0 mg/kg/injection, schedule: Q01DX001 (ip), vehicle: carboxymethylcellulose (CMC)
[15] = dose: 200.0 mg/kg/injection, schedule: Q01DX001 (ip), vehicle: carboxymethylcellulose (CMC)
[16] = dose: 400.0 mg/kg/injection, schedule: Q01DX001 (ip), vehicle: carboxymethylcellulose (CMC)

Measured: T/C

CCCCOP(=O)(OCCCC)OC(C)C(C)=O (configuration not stated)
inactive: [1] 95 % of control | dose: 100.0 mg/kg/injection, schedule: Q04DX003 (ip), vehicle: saline 102 % of control | [2] 104 % of control | dose: 200.0 mg/kg/injection, schedule: Q04DX003 (ip), vehicle: saline 98 % of control | [3] 101 % of control | dose: 400.0 mg/kg/injection, schedule: Q04DX003 (ip), vehicle: saline 90 % of control

COC1=C(Cl)C(=O)C(OC)=C(Cl)C1=O
inactive: dose: 5.0 mg/kg/injection, schedule: Q01DX001 (ip), vehicle: saline 97 % of control | dose: 10.0 mg/kg/injection, schedule: Q01DX001 (ip), vehicle: saline 95 % of control | dose: 20.0 mg/kg/injection, schedule: Q01DX001 (ip), vehicle: saline 106 % of control | dose: 40.0 mg/kg/injection, schedule: Q01DX001 (ip), vehicle: saline 101 % of control

CC1(C)N=C(N)N=C(N)N1c1cccc(OCCOc2ccccc2N)c1
inactive: dose: 25.0 mg/kg/injection, schedule: Q01DX001 (ip), vehicle: Klucel (hydroxypropylcellulose) (HPC) 101 % of control | dose: 50.0 mg/kg/injection, schedule: Q01DX001 (ip), vehicle: Klucel (hydroxypropylcellulose) (HPC) 101 % of control | [4] 98 % of control

COc1ccc(C(=O)/C(Br)=C/C(=O)O)cc1
inactive: [5] 102 % of control and 103 % of control and 108 % of control | dose: 12.5 mg/kg/injection, schedule: Q04DX003 (ip), vehicle: saline 94 % of control | [6] 98 % of control and 108 % of control (2×) | dose: 25.0 mg/kg/injection, schedule: Q04DX002 (ip), vehicle: saline 101 % of control | dose: 25.0 mg/kg/injection, schedule: Q04DX003 (ip), vehicle: saline 94 % of control | [7] 95 % of control and 110 % of control (2×) | dose: 50.0 mg/kg/injection, schedule: Q04DX002 (ip), vehicle: saline 105 % of control | dose: 50.0 mg/kg/injection, schedule: Q04DX003 (ip), vehicle: saline 108 % of control | [8] 112 % of control and 92 % of control

COC1CCCC[CH]1[Hg][Br] (configuration not stated)
inactive: dose: 0.78 mg/kg/injection, schedule: Q01DX009 (ip), vehicle: saline with Tween-80 90 % of control | dose: 1.56 mg/kg/injection, schedule: Q01DX009 (ip), vehicle: saline with Tween-80 96 % of control | dose: 3.13 mg/kg/injection, schedule: Q01DX009 (ip), vehicle: saline with Tween-80 96 % of control | dose: 12.5 mg/kg/injection, schedule: Q01DX009 (ip), vehicle: saline with Tween-80 93 % of control

N#Cc1ncc(C(Cl)(Cl)Cl)nc1Cl
inactive: dose: 25.0 mg/kg/injection, schedule: Q01DX009 (ip), vehicle: saline with Tween-80 103 % of control | dose: 25.0 mg/kg/injection, schedule: Q04DX003 (ip), vehicle: saline with Tween-80 100 % of control | dose: 50.0 mg/kg/injection, schedule: Q01DX009 (ip), vehicle: saline with Tween-80 105 % of control | dose: 50.0 mg/kg/injection, schedule: Q04DX003 (ip), vehicle: saline with Tween-80 100 % of control | [9] 105 % of control and 108 % of control | [10] 106 % of control | [11] 103 % of control | [12] 110 % of control

O=C1c2ccccc2C(=O)C1c1ccccc1
inactive: dose: 100.0 mg/kg/injection, schedule: Q04DX003 (ip), vehicle: Klucel (hydroxypropylcellulose) (HPC) 102 % of control | dose: 200.0 mg/kg/injection, schedule: Q04DX003 (ip), vehicle: Klucel (hydroxypropylcellulose) (HPC) 104 % of control | dose: 400.0 mg/kg/injection, schedule: Q04DX003 (ip), vehicle: Klucel (hydroxypropylcellulose) (HPC) 106 % of control

C1CCC(C2CCCC(C3CCCC[N-]3)[N-]2)[N-]C1.[Cl][Pt] (configuration not stated)
inactive: [5] 102 % of control | [6] 98 % of control | [7] 104 % of control and 106 % of control

O=C(C(=Nc1ccccc1)c1ccccc1)c1ccccc1
inactive: [10] 96 % of control | [13] 94 % of control

N#CCCP(=S)(CCC#N)CCC#N
inactive: dose: 100.0 mg/kg/injection, schedule: Q04DX002 (ip), vehicle: Klucel (hydroxypropylcellulose) (HPC) 94 % of control | dose: 200.0 mg/kg/injection, schedule: Q04DX002 (ip), vehicle: Klucel (hydroxypropylcellulose) (HPC) 112 % of control | dose: 400.0 mg/kg/injection, schedule: Q04DX002 (ip), vehicle: Klucel (hydroxypropylcellulose) (HPC) 105 % of control

C=C(Br)S(=O)(=O)C(=C)Br
inactive: dose: 6.25 mg/kg/injection, schedule: Q04DX002 (ip), vehicle: alcohol 101 % of control | dose: 12.5 mg/kg/injection, schedule: Q04DX002 (ip), vehicle: alcohol 111 % of control | dose: 25.0 mg/kg/injection, schedule: Q04DX002 (ip), vehicle: alcohol 101 % of control

CCCC(NC(=O)OCC)NC(=O)OCC
inactive: dose: 50.0 mg/kg/injection, schedule: Q01DX001 (ip), vehicle: carboxymethylcellulose (CMC) 95 % of control | [14] 92 % of control | [15] 90 % of control | [16] 92 % of control

O=C(Nc1ccc(Cl)cc1C(F)(F)F)OCCOc1ccccc1Cl
inactive: [9] 91 % of control | [11] 95 % of control | [12] 93 % of control

C[P+](Cc1ccc([N+](=O)[O-])cc1)(c1ccccc1)c1ccccc1
inactive: dose: 12.5 mg/kg/injection, schedule: Q01DX009 (ip), vehicle: Klucel (hydroxypropylcellulose) (HPC) 99 % of control | dose: 12.5 mg/kg/injection, schedule: Q04DX003 (ip), vehicle: Klucel (hydroxypropylcellulose) (HPC) 100 % of control | dose: 25.0 mg/kg/injection, schedule: Q01DX009 (ip), vehicle: Klucel (hydroxypropylcellulose) (HPC) 90 % of control | dose: 25.0 mg/kg/injection, schedule: Q04DX003 (ip), vehicle: Klucel (hydroxypropylcellulose) (HPC) 86 % of control | dose: 50.0 mg/kg/injection, schedule: Q04DX003 (ip), vehicle: Klucel (hydroxypropylcellulose) (HPC) 96 % of control

Cc1ccc(CCn2cnc3c(=S)nc[nH]c32)cc1
inactive: dose: 50.0 mg/kg/injection, schedule: Q01DX001 (ip), vehicle: saline 98 % of control | [1] 93 % of control | [2] 104 % of control | [3] 93 % of control

CC(N)CCC(O)C(=O)O (configuration not stated)
inactive: [8] 95 % of control | dose: 200.0 mg/kg/injection, schedule: Q04DX002 (ip), vehicle: saline 100 % of control | dose: 400.0 mg/kg/injection, schedule: Q04DX002 (ip), vehicle: saline 107 % of control

O=C(c1ccc(F)cc1)c1ccc(Cl)cc1Cl
inactive: [10] 97 % of control | [13] 98 % of control | dose: 400.0 mg/kg/injection, schedule: Q04DX003 (ip), vehicle: saline with Tween-80 101 % of control

N=C(N)N=Nc1ccc(NN=C(N)N)cc1
inactive: dose: 3.75 mg/kg/injection, schedule: Q01DX Z (ip), vehicle: saline 96 % of control | dose: 7.5 mg/kg/injection, schedule: Q01DX Z (ip), vehicle: saline 103 % of control | dose: 30.0 mg/kg/injection, schedule: Q01DX Z (ip), vehicle: saline 118 % of control | dose: 60.0 mg/kg/injection, schedule: Q01DX Z (ip), vehicle: saline 98 % of control and 87 % of control

CC1(C(=O)O)CCC(C(=O)O)C1(C)C (configuration not stated)
inactive: dose: 100.0 mg/kg/injection, schedule: Q04DX002 (ip), vehicle: saline with Tween-80 105 % of control | dose: 200.0 mg/kg/injection, schedule: Q04DX002 (ip), vehicle: saline with Tween-80 100 % of control | dose: 400.0 mg/kg/injection, schedule: Q04DX002 (ip), vehicle: saline with Tween-80 93 % of control

CCN(CC)CCCNc1cc(OC)cc2cccnc12
inactive: dose: 10.0 mg/kg/injection, schedule: Q01DX001 (ip), vehicle: carboxymethylcellulose (CMC) 107 % of control | dose: 20.0 mg/kg/injection, schedule: Q01DX001 (ip), vehicle: carboxymethylcellulose (CMC) 101 % of control

O=C(C[n+]1cccc2ccccc21)c1ccc(-c2ccccc2)cc1
inactive: dose: 200.0 mg/kg/injection, schedule: Q01DX001 (ip), vehicle: Klucel (hydroxypropylcellulose) (HPC) 96 % of control

COc1cc(C)c2oc(C)nc2c1
inactive: [4] 92 % of control | dose: 400.0 mg/kg/injection, schedule: Q01DX001 (ip), vehicle: Klucel (hydroxypropylcellulose) (HPC) 92 % of control

CCOC(=O)c1ccccn1
inactive: [1] 98 % of control | [2] 98 % of control

CN(C)c1c(F)c(F)c(N=Nc2ccccc2)c(F)c1F
inactive: [14] 98 % of control | [15] 114 % of control | [16] 98 % of control
